The values below come from BindingDB's records for doi:10.7270/Q2W957N3 (Burnham Center For Chemical Genomics, 2010).

SMILES strings stand for the structures.

For the test, the target named is Alkaline phosphatase, placental type (Homo sapiens, UniProt P05187). Description: PLAP enzyme inhibitors, dose response, selectivity assay for human IAP inhibitor project, biochemical, uHTS hits, luminescence (AID 488892).
Alkaline phosphatase, placental type, sequence (P05187 whole entry, looked up): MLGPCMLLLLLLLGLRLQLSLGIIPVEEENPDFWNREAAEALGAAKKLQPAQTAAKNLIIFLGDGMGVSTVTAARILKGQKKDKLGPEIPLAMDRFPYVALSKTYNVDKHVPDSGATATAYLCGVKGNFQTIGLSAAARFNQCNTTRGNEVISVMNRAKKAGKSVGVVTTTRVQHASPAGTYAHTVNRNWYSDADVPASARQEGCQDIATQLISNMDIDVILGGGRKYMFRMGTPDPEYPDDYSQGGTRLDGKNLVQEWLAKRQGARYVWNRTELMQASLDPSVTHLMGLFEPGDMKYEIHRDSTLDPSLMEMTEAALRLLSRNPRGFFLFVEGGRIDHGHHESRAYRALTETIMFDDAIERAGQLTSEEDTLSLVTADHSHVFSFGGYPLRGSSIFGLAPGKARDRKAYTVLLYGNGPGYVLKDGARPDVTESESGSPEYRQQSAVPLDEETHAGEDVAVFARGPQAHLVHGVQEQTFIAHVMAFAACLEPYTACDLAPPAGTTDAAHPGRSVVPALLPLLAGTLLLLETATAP
`CC(N=Nc1ccccc1[N+](=O)[O-])c1ccc([N+](=O)[O-])cc1` (stereo not drawn) came in with a half-inhibitory concentration (IC50) above 100 µM.
With `CCOC1=CC(=Cc2c(C)[nH]oc2=O)C=C(Br)C1=O` [4-[(Z)-(3-bromo-5-ethoxy-4-oxo-1-cyclohexa-2,5-dienylidene)methyl]-3-methyl-2H-isoxazol-5-one] the figure was 35.1 µM; with `C=c1[nH]n(Cc2ccccc2)c(=O)c1=Cc1ccc(N(C)C)cc1` [(4Z)-4-[[4-(dimethylamino)phenyl]methylidene]-5-methyl-2-(phenylmethyl)-3-pyrazolone], 37.8 µM.
